{"source": "patent US20210205415A1", "about": "(Longevity Biotech, Inc., priority 2010, published 2021)", "key": {"mouse CRF2β": {"target": "mouse CRF2β (Mus musculus, UniProt Q60748)", "sequence (Q60748 1-431 isoform Q60748-2)": "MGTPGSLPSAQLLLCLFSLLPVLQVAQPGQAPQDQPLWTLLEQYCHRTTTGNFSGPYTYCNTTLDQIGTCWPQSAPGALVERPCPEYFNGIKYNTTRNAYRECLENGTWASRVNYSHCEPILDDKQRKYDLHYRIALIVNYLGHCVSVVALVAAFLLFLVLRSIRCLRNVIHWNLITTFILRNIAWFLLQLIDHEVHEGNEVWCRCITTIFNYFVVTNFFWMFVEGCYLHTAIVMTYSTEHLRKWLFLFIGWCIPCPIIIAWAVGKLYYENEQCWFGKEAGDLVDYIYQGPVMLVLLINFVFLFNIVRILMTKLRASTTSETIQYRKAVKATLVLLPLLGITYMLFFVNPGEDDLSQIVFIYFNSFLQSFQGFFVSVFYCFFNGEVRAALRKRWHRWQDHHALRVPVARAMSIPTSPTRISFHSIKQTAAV", "details": "read-out: Kd for binding to mouse CRF2β; cited from earlier work"}, "rat CRF1 receptors": {"target": "T1, rat CRF1 receptors (Rattus norvegicus, UniProt P35353)", "T1 sequence (P35353 24-415)": "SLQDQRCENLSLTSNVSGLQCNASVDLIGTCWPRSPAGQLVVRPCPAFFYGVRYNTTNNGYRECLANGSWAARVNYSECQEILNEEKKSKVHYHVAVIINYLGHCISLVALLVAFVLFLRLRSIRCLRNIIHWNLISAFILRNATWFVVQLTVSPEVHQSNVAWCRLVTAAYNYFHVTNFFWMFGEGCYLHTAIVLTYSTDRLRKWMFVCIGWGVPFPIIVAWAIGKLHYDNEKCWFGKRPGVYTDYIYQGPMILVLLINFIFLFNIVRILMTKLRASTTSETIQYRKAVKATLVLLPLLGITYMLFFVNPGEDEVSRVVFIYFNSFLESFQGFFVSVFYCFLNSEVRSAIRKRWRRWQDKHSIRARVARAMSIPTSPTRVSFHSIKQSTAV", "details": "read-out: Kd for binding to rat CRF1 receptors; cited from earlier work"}, "HEK-mCRF2β cells": {"target": "T2, HEK-mCRF2β cells (Mus musculus, UniProt Q60748)", "T2 construct": "expressed in transfected cells; host or cells: HEK cells (value quoted from the literature)", "T2 sequence (Q60748 1-431 isoform Q60748-2)": "as the sequence (Q60748 1-431 isoform Q60748-2) above", "details": "cited from earlier work"}, "CRF2α": {"target": "T3, CRF2α (Homo sapiens, UniProt Q13324)", "T3 sequence (Q13324 1-411)": "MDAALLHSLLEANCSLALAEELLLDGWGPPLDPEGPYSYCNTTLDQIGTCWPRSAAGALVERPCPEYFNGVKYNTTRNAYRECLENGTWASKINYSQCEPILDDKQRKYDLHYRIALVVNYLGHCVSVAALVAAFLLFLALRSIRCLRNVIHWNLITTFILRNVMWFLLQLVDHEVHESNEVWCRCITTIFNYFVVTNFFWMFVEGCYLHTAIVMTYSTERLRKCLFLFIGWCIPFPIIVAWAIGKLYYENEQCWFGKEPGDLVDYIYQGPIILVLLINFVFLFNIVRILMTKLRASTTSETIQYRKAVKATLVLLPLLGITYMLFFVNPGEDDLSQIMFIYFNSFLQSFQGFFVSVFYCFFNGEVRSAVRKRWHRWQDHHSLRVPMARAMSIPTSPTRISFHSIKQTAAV", "details": "cited from earlier work"}, "calcitonin (CT) receptor": {"test_system": "calcitonin (CT) receptor", "details": "cited from earlier work"}, "[1]": {"test_system": "calcitonin-gene related peptide (CGRP) and adrenomedullin receptors", "details": "cited from earlier work"}, "Glucagon receptor": {"target": "T4, Glucagon receptor (Rattus norvegicus, UniProt P30082)", "T4 construct": "from tissue; host or cells: rat liver membranes (value quoted from the literature)", "T4 sequence (P30082 27-485)": "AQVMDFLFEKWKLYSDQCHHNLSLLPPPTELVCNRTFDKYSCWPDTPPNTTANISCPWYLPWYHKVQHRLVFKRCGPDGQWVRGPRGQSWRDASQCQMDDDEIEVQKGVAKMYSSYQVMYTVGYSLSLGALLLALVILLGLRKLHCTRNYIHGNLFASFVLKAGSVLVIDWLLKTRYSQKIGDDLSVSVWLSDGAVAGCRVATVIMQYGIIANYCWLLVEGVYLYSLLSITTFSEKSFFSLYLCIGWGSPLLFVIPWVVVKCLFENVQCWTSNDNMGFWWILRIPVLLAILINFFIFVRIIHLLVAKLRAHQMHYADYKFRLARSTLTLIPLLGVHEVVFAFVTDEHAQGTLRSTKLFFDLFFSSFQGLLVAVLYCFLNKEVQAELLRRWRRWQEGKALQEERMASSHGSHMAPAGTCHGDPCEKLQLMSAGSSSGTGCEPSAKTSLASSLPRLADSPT", "details": "rat liver membranes; cited from earlier work"}, "[2]": {"details": "humans; cited from earlier work"}, "neurotensin receptors": {"target": "neurotensin receptors", "details": "rat brain receptors; read-out: IC50 for inhibition of {Trp11}-NT binding; cited from earlier work"}, "VPAC1 receptor": {"target": "T5, VPAC1 receptor (Homo sapiens, UniProt P32241)", "T5 sequence (P32241 31-457)": "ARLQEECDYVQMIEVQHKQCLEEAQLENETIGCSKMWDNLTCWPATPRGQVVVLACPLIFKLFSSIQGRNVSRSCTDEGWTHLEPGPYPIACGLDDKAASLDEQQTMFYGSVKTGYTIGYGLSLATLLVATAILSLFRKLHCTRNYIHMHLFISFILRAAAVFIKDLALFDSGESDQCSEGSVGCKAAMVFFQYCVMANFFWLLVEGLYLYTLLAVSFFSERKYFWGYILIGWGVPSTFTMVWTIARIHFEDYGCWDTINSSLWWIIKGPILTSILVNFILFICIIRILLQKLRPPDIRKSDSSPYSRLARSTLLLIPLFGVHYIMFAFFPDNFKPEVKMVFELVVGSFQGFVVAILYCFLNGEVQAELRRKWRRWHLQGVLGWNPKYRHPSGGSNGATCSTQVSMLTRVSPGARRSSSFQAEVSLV", "details": "cited from earlier work"}, "VPAC2 receptors": {"target": "T6, VPAC2 receptors (Homo sapiens, UniProt P41587)", "T6 sequence (P41587 24-438)": "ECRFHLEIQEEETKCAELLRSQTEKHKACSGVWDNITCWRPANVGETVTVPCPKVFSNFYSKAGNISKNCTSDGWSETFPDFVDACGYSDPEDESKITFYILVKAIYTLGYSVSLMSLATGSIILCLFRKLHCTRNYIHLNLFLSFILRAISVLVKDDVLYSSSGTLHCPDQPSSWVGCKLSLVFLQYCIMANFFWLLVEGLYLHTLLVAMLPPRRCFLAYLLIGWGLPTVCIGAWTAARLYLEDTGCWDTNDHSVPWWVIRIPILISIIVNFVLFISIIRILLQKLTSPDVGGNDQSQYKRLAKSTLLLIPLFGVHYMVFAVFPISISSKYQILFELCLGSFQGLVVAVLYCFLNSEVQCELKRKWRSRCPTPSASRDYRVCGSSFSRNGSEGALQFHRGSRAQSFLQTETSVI", "details": "read-out: IC50 for VPAC2 receptor; cited from earlier work"}, "VIPR1": {"target": "T7, VIPR1 (Homo sapiens, UniProt P32241)", "T7 sequence (P32241 31-457)": "T5 sequence (P32241 31-457)", "test": "cAMP Hunter cell line agonist mode assay (DiscoveRx HitHunter cAMP XS+)", "type": "cell-based", "details": "for Mean RLU: readout cAMP, cell line VIPR1", "protocol": "(§1) Once it was established that the cells were healthy and growing normally, cells were passaged from flasks using cell dissociation reagent buffer and seeded into white walled clear bottom 384-well microplates for compound profiling. For profiling, cells were seeded at a density of 10,000 cells per well in a total volume of 20 μL and were allowed to adhere and recover overnight prior to compound addition. cAMP modulation was determined using the DiscoveRx HitHunter cAMP XS+ assay.\n(§2) For profiling compound in agonist mode, the cells were incubated in the presence of compound at 37° C. for 30 minutes. […] After appropriate compound incubation, assay signal was generated through incubation with DiscoverX lysis cocktail according to the manufacturers standard protocol. Dose curves were plotted using GraphPad Prism or Activity Base. Percentage activity is calculated using the following formula:\n(§3) % Activity=100% ×(mean RLU of test sample−mean RLU of vehicle control)/(mean RLU of MAX control−mean RLU of vehicle control)."}, "VIPR2": {"target": "T8, VIPR2 (Homo sapiens, UniProt P41587)", "T8 sequence (P41587 24-438)": "T6 sequence (P41587 24-438)", "test": "cAMP Hunter cell line agonist mode assay (DiscoveRx HitHunter cAMP XS+)", "type": "cell-based", "details": "for Mean RLU: readout cAMP, cell line VIPR2", "protocol": "as §1, §2, §3"}}, "note": "No end group written: not given here."}
{"molecule": "Antisauvagine-30", "values": [{"measurement": "Kd", "setting": "mouse CRF2β", "result": 14, "unit": "nM"}, {"measurement": "Kd", "setting": "rat CRF1 receptors", "result": 1540, "unit": "nM"}, {"measurement": "pA2, inhibition of sauvagine-stimulated cAMP accumulation", "setting": "HEK-mCRF2β cells", "result": "accumulation in HEK-mCRF2β cells (pA2=849) Prevents stress-"}]}
{"molecule": "Astressin", "values": [{"measurement": "Ki", "setting": "CRF2α", "result": 15, "unit": "nM"}]}
{"molecule": "Calcitoninreceptor-stimulating peptide-1 (SCNTATCMTHRLVGLLSRSGSMVRSNLLPTKMGFKVFG-NH2; ends and bridges not checked; UniProt Q862B1 81-118, looked up)", "values": [{"measurement": "ED50, stimulation of cAMP formation", "setting": "calcitonin (CT) receptor; calcitonin (CT) receptor", "result": "02", "unit": "nM"}, {"measurement": "potency of cAMP formation relative to CT", "setting": "calcitonin (CT) receptor; greater than CT", "result": 350, "unit": "fold"}, {"measurement": "activity at CGRP and adrenomedullin receptors", "setting": "[1]", "result": "no activity at calcitonin-gene related peptide (CGRP) and adrenomedullin"}]}
{"molecule": "des-His1-{Glu9}-Glucagon (1-29) amide", "values": [{"measurement": "pA2 for inhibition of glucagon-induced adenylyl cyclase activation", "setting": "Glucagon receptor", "result": "(Glucagon receptor antagonist (pA2=72 for inhibition of glucagon-induced"}]}
{"molecule": "glucagon-like peptide-1 [GLP-1]", "values": [{"measurement": "plasma half-life", "setting": "[2]", "result": 2, "unit": "min"}]}
{"molecule": "Neuromedin N (rat, mouse, porcine, canine) (KIPYIL; Neuromedin N; UniProt P20068 142-147, looked up)", "values": [{"measurement": "IC50", "setting": "neurotensin receptors", "result": 167, "unit": "nM"}]}
{"molecule": "{Ala2,8,9,11,19,22,24,25,27,28}-VIP", "values": [{"measurement": "IC50", "setting": "VPAC1 receptor", "result": "115 to 132", "unit": "nM"}, {"measurement": "IC50", "setting": "VPAC2 receptors", "result": "> 30", "unit": "µM"}]}
{"molecule": "CC[C@H](C)[C@H](NC(=O)[C@H]1CCC[C@@H]1NC(=O)[C@H](CC(N)=O)NC(=O)[C@H](CC(C)C)NC(=O)[C@H](Cc1ccc(O)cc1)NC(=O)[C@H]1CNC[C@@H]1NC(=O)[C@H](CCCCN)NC(=O)[C@@H](NC(=O)[C@H]1CCC[C@@H]1NC(=O)[C@H](CC(C)C)NC(=O)[C@H](CCC(N)=O)NC(=O)[C@H](CCCCN)NC(=O)[C@H]1CNC[C@@H]1NC(=O)[C@H](CC(C)C)NC(=O)[C@H](CCCNC(=N)N)NC(=O)[C@H]1CCC[C@@H]1NC(=O)[C@H](Cc1ccc(O)cc1)NC(=O)[C@H](CC(N)=O)NC(=O)[C@H](CC(=O)O)NC(=O)[C@@H](NC(=O)[C@H](Cc1ccccc1)NC(=O)[C@@H](NC(=O)[C@H](C)NC(=O)[C@H](CC(=O)O)NC(=O)[C@H](CO)NC(=O)[C@@H](N)Cc1c[nH]cn1)C(C)C)[C@@H](C)O)C(C)C)C(=O)N[C@H](CC(=O)NC(CC(N)=O)CC(N)=O)CC(C)C", "note": "[Compound 8, HSDAVFTDNYXRLZKQLXVKZYLNXILN]", "values": [{"measurement": "EC50 compared with wild-type VIP", "setting": "VIPR1; FIG. 3 legend", "result": "higher than the EC50 of wild-type VIP protein"}, {"measurement": "Emax", "setting": "VIPR1; FIG. 3 legend, read-out: activation of VIPR1 relative to maximum activation", "result": "~100", "unit": "%"}, {"measurement": "Mean RLU", "setting": "VIPR1; [Compound] 1.00E−08 M, agonist mode", "result": 13750.0, "unit": "RLU"}, {"measurement": "Mean RLU", "setting": "VIPR1; [Compound] 1.00E−09 M, agonist mode", "result": 18600.0, "unit": "RLU"}, {"measurement": "Mean RLU", "setting": "VIPR1; [Compound] 1.00E−10 M, agonist mode", "result": 9060.0, "unit": "RLU"}, {"measurement": "Mean RLU", "setting": "VIPR1; [Compound] 1.00E−11 M, agonist mode", "result": 10500.0, "unit": "RLU"}, {"measurement": "Mean RLU", "setting": "VIPR1; [Compound] 1.00E−12 M, agonist mode", "result": 10340.0, "unit": "RLU"}, {"measurement": "Mean RLU", "setting": "VIPR1; [Compound] 5.00E−09 M, agonist mode", "result": 13250.0, "unit": "RLU"}, {"measurement": "Mean RLU", "setting": "VIPR1; [Compound] 5.00E−10 M, agonist mode", "result": 9520.0, "unit": "RLU"}, {"measurement": "activation of VIPR1", "setting": "VIPR1; agonist mode, FIG. 3", "result": "fully activate VIPR1"}, {"measurement": "interaction with VIPR2", "setting": "VIPR2", "result": "does not interact substantially with VIPR2"}, {"measurement": "activation of VIPR2", "setting": "VIPR2; FIG. 3", "result": "not activate VIPR2"}, {"measurement": "Mean RLU", "setting": "VIPR2; [Compound] 1.00E−07 M", "result": 5920.0, "unit": "RLU"}, {"measurement": "Mean RLU", "setting": "VIPR2; [Compound] 1.00E−08 M", "result": 9580.0, "unit": "RLU"}, {"measurement": "Mean RLU", "setting": "VIPR2; [Compound] 1.00E−09 M", "result": 5960.0, "unit": "RLU"}, {"measurement": "Mean RLU", "setting": "VIPR2; [Compound] 1.00E−10 M", "result": 7560.0, "unit": "RLU"}, {"measurement": "Mean RLU", "setting": "VIPR2; [Compound] 1.00E−11 M", "result": 9250.0, "unit": "RLU"}, {"measurement": "Mean RLU", "setting": "VIPR2; [Compound] 1.00E−12 M", "result": 8960.0, "unit": "RLU"}, {"measurement": "Mean RLU", "setting": "VIPR2; [Compound] 5.00E−07 M", "result": 10200.0, "unit": "RLU"}, {"measurement": "Mean RLU", "setting": "VIPR2; [Compound] 5.00E−08 M", "result": 9200.0, "unit": "RLU"}, {"measurement": "Mean RLU", "setting": "VIPR2; [Compound] 5.00E−09 M", "result": 3560.0, "unit": "RLU"}, {"measurement": "Mean RLU", "setting": "VIPR2; [Compound] 5.00E−10 M", "result": 9620.0, "unit": "RLU"}]}
